Laboratory results: article PMC8903829 (eLife, 2022)
Where two headings read alike, the source gives them in different places.

Columns and labels:
[1] = tested on: wild-type Sprague Dawley rats; test: DC-Maximal electroshock seizure assay (DC-MES); type: in vivo, rat
Protocol: (§1) Phenytoin was formulated in physiologic saline and was administered intraperitoneally (i.p.) using a 25-gauge needle at a dose volume of 10 mL/kg. All compounds were administered 2 hr prior to electrical seizure induction for all seizure models employed in this study.
(§2) The maximal electroshock seizure (MES) assay has been extensively used in the search for anticonvulsant substances ([Löscher et al., 1991]; [Piredda et al., 1985]; [White et al., 1995]). The MES assay is sensitive to nonselective NaV inhibitors. It is considered a model for generalized tonic-clonic (GTC) seizures and provides an assessment of seizure spread. Briefly, an electroshock of direct current (DC) was delivered by corneal electrodes (Electro Convulsive Therapy Unit 57,800 from Ugo Basile). The parameters of stimulation were different between mice and rats. In CF1 mice aged 9–12 weeks, a direct current of 50 mA (60 Hz) was delivered for 0.2 s (pulse width of 0.5ms), whereas in Sprague Dawley (SD) rats aged 5–6 weeks, a direct current of 150 mA (60 Hz) was delivered for 0.3 s (pulse width of 0.5ms). Immediately prior to the electroshock, the animals’ eyes were anesthetized with a drop of Alcaine (0.5% proparacaine hydrochloride).
(§3) An animal was considered protected in the assay in the absence of a GTC with hindlimb extension and is then scored ‘0’. An animal displaying GTC with hindlimb extension was considered not protected and is then scored ‘1’. The experimenter scoring the seizure behavior was blinded to the treatment.

Scn8a^N1768D/+ mice = test: Modified 6 Hz psychomotor seizure assay; type: in vivo, mouse
Protocol: as §1
Scn8a^N1768D/+heterozygous mice were tested at 5 weeks of age (p35). The modified 6 Hz seizure assay in Scn8a^N1768D/+heterozygous mice was adapted from the traditional 6 Hz assay psychomotor seizure assay to provide a measure of in vivo on target (NaV1.6 mediated) efficacy ([Barton et al., 2001]). The modified assay used a low frequency (6 Hz) but long-duration stimulation (3 s) to induce seizures. […] An electroshock (6 Hz, 12 mA) was delivered for 3 s (at 0.3-ms pulse interval) by corneal electrodes (Electro Convulsive Therapy Unit 57,800 from Ugo Basile). Immediately prior to the electroshock, the animals’ eyes were anesthetized with a drop of Alcaine (0.5% proparacaine hydrochloride).
An animal was considered protected in the assay upon prevention of GTC with hindlimb extension and was then scored ‘0’. An animal displaying GTC with hindlimb extension was considered not protected and is then scored ‘1’. The experimenter scoring the seizure behavior was blinded to the treatment.

[2] = Bioanalytical assessment of plasma and brain concentrations after rat DC-MES assay; type: in vivo; settings: Study18085, 2 mg/kg, Rat DC-MES
[3] = Bioanalytical assessment of plasma and brain concentrations after 6 Hz assay; type: in vivo, mouse
Protocol: (§4) Approximately 0.5 mL of blood was collected from each mouse at the end of the assay via cardiac puncture under deep anesthesia. The blood samples were collected in a syringe and transferred to tubes containing EDTA. Blood was stored at 4 °C until centrifuged within 30 min of collection. Plasma was harvested and placed on dry ice and stored in a freezer set to maintain a temperature of –70°C to –80°C until analysis. Brains were harvested immediately after blood collection and placed on dry ice prior to storage in a freezer set to maintain a temperature of –70°C to –80°C until analysis.
(§5) Extraction of plasma samples was carried out by protein precipitation using acetonitrile. Plasma samples (50 µL) were mixed with 50 µL of internal standard (IS) solution in water followed by addition of 10 µL of concentrated ortho-phosphoric acid and 200 µL of acetonitrile. Samples were vortexed for 30 seconds, centrifuged at 13,000 rpm for 20 min, decanted in to a 96-well plate, and further centrifuged at 4000 rpm for 20 min. The samples were analyzed by UHPLC-ESI-MS/MS as described below.
(§6) Prior to extraction, pre-weighed whole brains were homogenized in 1:1 acetonitrile/water (v/v) (4 mL per mouse brain) using an IKA T18 ULTRA-TURRAX Homogenizer at the setting of 4 for approximately 2 min. The homogenate was centrifuged at 13,000 rpm for 20 min and 50 µL of the supernatant were treated exactly as described above for plasma samples. […]
(§7) Samples were analyzed by UHPLC-ESI MS/MS using a TQ-5500 Sciex triple quadrupole mass spectrometer equipped with a Shimadzu Nexera UHPLC pump and auto-sampler system using an ACE C18 PFP, 2.50 × 50 mm, 1.7 µm particle size column and gradient elution consisting of solvent A (0.1% formic acid in water) and solvent B (0.1% formic acid in acetonitrile) starting at 20% B from 0 min to 0.4 min and then increased to 100% B from 0.4 min to 0.6 min. At 2.0 min, the mobile phase composition was switched back to […] for 1 min. The flow rate used throughout the experiment was […]. […] The UHPLC-ESI MS/MS system was controlled by Analyst 1.6.
(§8) Sample concentrations were determined using a linear calibration function, weighted 1 /X, generated by the regression of analyte to IS peak area ratios in the standard samples to their respective concentrations. Acceptance criteria for the analytical run required that the back calculated values of the standards and the QC samples fell within ±20% of their nominal values, except for the lowest standard or lower limit of quantitation (LLOQ), for which the acceptance criterion was ±25%. At least 6 out of 12 standard points had to show back-calculated values within ±20% of their nominal concentrations for the calibration to be accepted. At least three QC samples, one at each level, had to show back-calculated values within ±20% of their nominal concentrations for the whole sample batch to be valid.

wild-type mice (CF-1) = test: DC-Maximal electroshock seizure assay (DC-MES); type: in vivo, mouse
Protocol: as §1, §2, §3

Sprague Dawley rats = test: Observation of potential adverse behavior (behavioral signs) in the rat DC-MES studies; type: in vivo; settings: Sprague Dawley, rat, in vivo, 2 hr
Protocol: Animals were observed by the scientist(s) responsible for dosing for the first 30 min after dosing for and again at the time of assay (2 hr post dose) for signs of abnormal behavior.

[4] = Bioanalytical assessment of plasma and brain concentrations after mouse DC-MES assay; type: in vivo; settings: mouse, intraperitoneal, WT mouse DC-MES acute
Protocol: as §4, §5, §6, §7, §8

[5] = Study16042, 1 mg/kg, SCN8A mouse 6HZ
[6] = Study16042, 3 mg/kg, SCN8A mouse 6HZ
[7] = Study16042, 10 mg/kg, SCN8A mouse 6HZ
[8] = Study16042, 30 mg/kg, SCN8A mouse 6HZ
[9] = Study16042, 56 mg/kg, SCN8A mouse 6HZ
[10] = Study16189, 10 mg/kg, SCN8A mouse 6HZ
[11] = Study16189, 30 mg/kg, SCN8A mouse 6HZ
[12] = Study16202, 1 mg/kg, P75, SCN8A mouse 6HZ
[13] = Study16202, 3 mg/kg, P75, SCN8A mouse 6HZ

O=C1NC(=O)C(c2ccccc2)(c2ccccc2)N1 [PHT]
Rat DC-MES Fraction of animals seizing ([1]; Study18085, 2 mg/kg): 0.667 | SCN8A mouse 6HZ Fraction of animals seizing (Scn8a^N1768D/+ mice; Study16042, 1 mg/kg): 1 | SCN8A mouse 6HZ Fraction of animals seizing (Scn8a^N1768D/+ mice; Study16042, 3 mg/kg): 0.75 | SCN8A mouse 6HZ Fraction of animals seizing (Scn8a^N1768D/+ mice; Study16042, 10 mg/kg): 0.25 | SCN8A mouse 6HZ Fraction of animals seizing (Scn8a^N1768D/+ mice; Study16042, 30 mg/kg): 0 | SCN8A mouse 6HZ Fraction of animals seizing (Scn8a^N1768D/+ mice; Study16042, 56 mg/kg): 0 | SCN8A mouse 6HZ Fraction of animals seizing (Scn8a^N1768D/+ mice; Study16189, 10 mg/kg): 0.15 | SCN8A mouse 6HZ Fraction of animals seizing (Scn8a^N1768D/+ mice; Study16189, 30 mg/kg): 0 | SCN8A mouse 6HZ Fraction of animals seizing (Scn8a^N1768D/+ mice; Study16202, 1 mg/kg, P75): 1 | SCN8A mouse 6HZ Fraction of animals seizing (Scn8a^N1768D/+ mice; Study16202, 3 mg/kg, P75): 0.858 | Mean [Brain] [2]: 1.841 µM | Mean [Palsma] [2]: 3.4567 µM | Mean [Brain] [3, 5]: 2.665 µM | Mean [Palsma] [3, 5]: 1.798 µM | Mean [Brain] [3, 6]: 11.7685 µM | Mean [Palsma] [3, 6]: 7.584 µM | Mean [Brain] [3, 7]: 38.4981 µM | Mean [Palsma] [3, 7]: 32.6675 µM | Mean [Brain] [3, 8]: 120.646 µM | Mean [Palsma] [3, 8]: 92.6612 µM | Mean [Brain] [3, 9]: 109.171 µM | Mean [Palsma] [3, 9]: 127.343 µM | Mean [Brain] [3, 10]: 29.4623 µM | Mean [Palsma] [3, 10]: 26.0411 µM | Mean [Brain] [3, 11]: 76.4798 µM | Mean [Palsma] [3, 11]: 59.0466 µM | Mean [Brain] [3, 12]: 2.628 µM | Mean [Palsma] [3, 12]: 2.477 µM | Mean [Brain] [3, 13]: 7.154 µM | Mean [Palsma] [3, 13]: 7.163 µM

O=C1NC(=O)C(c2ccccc2)(c2ccccc2)N1 [phenytoin, Phenytoin]
WT mouse DC-MES acute Fraction of animals seizing (wild-type mice (CF-1); Study16130, 5 mg/kg): 0.5714 | WT mouse DC-MES acute Fraction of animals seizing (wild-type mice (CF-1); Study16130, 10 mg/kg): 0 | WT mouse DC-MES acute Fraction of animals seizing (wild-type mice (CF-1); Study17131, 2 mg/kg): 0.6667 | WT mouse DC-MES acute Fraction of animals seizing (wild-type mice (CF-1); Study17136, 2 mg/kg): 0.7143 | WT mouse DC-MES acute Fraction of animals seizing (wild-type mice (CF-1); Study17136, 5 mg/kg): 0.625 | EC50 (wild-type mice (CF-1); WT mouse DC-MES, 2 hr post dose (oral; phenytoin i.p.), read-out: brain EC50): 13 µM | minimal plasma concentration provoking behavioral signs (BSC) (Sprague Dawley rats): 11 µM | EC50 ([1]; WT rat DC-MES (oral; phenytoin i.p.), read-out: plasma EC50): 4.5 µM | EC50 ([1]; WT rat DC-MES, 2 hr post dose (oral; phenytoin i.p.), read-out: brain EC50): 2.6 µM | EC50 (Scn8a^N1768D/+ mice; Mus musculus, Scn8a^N1768D/+ 6 Hz model, 2 hr post dose (oral; phenytoin i.p.), read-out: brain EC50): 18 µM | concentration at 2 h ([4]; brain, 2 mg/kg, Study17131, 2 mg/kg, read-out: Mean [Brain]): 6.12 µM | concentration at 2 h ([4]; brain, 2 mg/kg, Study17136, 2 mg/kg, read-out: Mean [Brain]): 3.6 µM | concentration at 2 h ([4]; brain, 5 mg/kg, Study16130, 5 mg/kg, read-out: Mean [Brain]): 17.9 µM | concentration at 2 h ([4]; brain, 5 mg/kg, Study17136, 5 mg/kg, read-out: Mean [Brain]): 10.9 µM | concentration at 2 h ([4]; brain, 10 mg/kg, Study16130, 10 mg/kg, read-out: Mean [Brain]): 38.3 µM | concentration at 2 h ([4]; plasma, 2 mg/kg, Study17131, 2 mg/kg, read-out: Mean [Palsma]): 3.42 µM | concentration at 2 h ([4]; plasma, 2 mg/kg, Study17136, 2 mg/kg, read-out: Mean [Palsma]): 3.65 µM | concentration at 2 h ([4]; plasma, 5 mg/kg, Study16130, 5 mg/kg, read-out: Mean [Palsma]): 16.1 µM | concentration at 2 h ([4]; plasma, 5 mg/kg, Study17136, 5 mg/kg, read-out: Mean [Palsma]): 11.5 µM | concentration at 2 h ([4]; plasma, 10 mg/kg, Study16130, 10 mg/kg, read-out: Mean [Palsma]): 30.7 µM
